The source of these data is paper PMC7736581, “Activation of the IRE1 RNase through remodeling of the kinase front pocket by ATP-competitive ligands” (Nature Communications, 2020).

Holding throughout (experiment): biochemical
Holding throughout (set-up): Invitrogen kinase panel: Z'Lyte activity (ATP at Km) or LanthaScreen competitive ATP-site binding, percent inhibition
(In general: TR-FRET usually uses a lanthanide donor and a delayed reading to cut background.)

One assay deals with T1, CHK1 (Homo sapiens, UniProt O14757).
T1 construct: gene CHEK1
T1 sequence (O14757 1-476): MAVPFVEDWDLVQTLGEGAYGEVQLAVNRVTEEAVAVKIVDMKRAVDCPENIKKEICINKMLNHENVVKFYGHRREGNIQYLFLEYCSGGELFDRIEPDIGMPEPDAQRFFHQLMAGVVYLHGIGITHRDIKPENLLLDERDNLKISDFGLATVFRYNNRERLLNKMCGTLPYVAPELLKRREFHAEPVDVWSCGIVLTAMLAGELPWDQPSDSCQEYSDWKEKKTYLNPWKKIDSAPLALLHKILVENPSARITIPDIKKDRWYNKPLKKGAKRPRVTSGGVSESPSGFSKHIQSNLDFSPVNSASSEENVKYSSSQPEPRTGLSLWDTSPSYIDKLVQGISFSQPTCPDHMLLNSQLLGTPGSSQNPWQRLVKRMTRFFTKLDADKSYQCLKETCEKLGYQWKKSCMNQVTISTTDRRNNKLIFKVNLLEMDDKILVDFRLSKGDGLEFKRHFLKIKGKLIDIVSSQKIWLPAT

Another assay has as its target T2, GSK3_beta (Homo sapiens, UniProt P49841).
T2 construct: gene GSK3B

The next assay addresses T3, PKD1 (Homo sapiens, UniProt Q15139).
T3 construct: gene PRKD1
T3 sequence (Q15139 1-912): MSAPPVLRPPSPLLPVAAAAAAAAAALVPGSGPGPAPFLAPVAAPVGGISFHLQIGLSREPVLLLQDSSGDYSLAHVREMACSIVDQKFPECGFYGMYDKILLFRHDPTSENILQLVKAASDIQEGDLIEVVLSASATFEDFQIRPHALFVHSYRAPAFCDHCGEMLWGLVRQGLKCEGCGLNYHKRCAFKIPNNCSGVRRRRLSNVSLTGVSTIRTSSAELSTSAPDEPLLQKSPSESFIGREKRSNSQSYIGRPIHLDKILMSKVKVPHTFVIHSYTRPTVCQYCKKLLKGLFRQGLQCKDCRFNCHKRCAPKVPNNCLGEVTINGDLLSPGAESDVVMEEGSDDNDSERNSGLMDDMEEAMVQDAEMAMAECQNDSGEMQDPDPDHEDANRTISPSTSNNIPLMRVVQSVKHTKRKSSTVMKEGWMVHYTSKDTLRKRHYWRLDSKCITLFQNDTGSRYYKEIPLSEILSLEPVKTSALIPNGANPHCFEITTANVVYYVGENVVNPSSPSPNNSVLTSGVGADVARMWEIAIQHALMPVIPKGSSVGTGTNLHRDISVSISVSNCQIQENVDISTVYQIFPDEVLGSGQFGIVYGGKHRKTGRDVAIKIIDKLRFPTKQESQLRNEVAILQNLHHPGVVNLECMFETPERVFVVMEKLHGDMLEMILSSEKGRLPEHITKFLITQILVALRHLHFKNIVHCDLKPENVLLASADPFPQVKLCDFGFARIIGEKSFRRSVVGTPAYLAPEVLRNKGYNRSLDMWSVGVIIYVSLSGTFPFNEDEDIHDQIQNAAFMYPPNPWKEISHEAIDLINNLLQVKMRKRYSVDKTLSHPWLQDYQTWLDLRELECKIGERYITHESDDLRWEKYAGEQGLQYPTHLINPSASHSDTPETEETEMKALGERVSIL

In the next assay the target is SLK (Homo sapiens, UniProt Q9H2G2).
SLK, sequence (Q9H2G2 whole entry): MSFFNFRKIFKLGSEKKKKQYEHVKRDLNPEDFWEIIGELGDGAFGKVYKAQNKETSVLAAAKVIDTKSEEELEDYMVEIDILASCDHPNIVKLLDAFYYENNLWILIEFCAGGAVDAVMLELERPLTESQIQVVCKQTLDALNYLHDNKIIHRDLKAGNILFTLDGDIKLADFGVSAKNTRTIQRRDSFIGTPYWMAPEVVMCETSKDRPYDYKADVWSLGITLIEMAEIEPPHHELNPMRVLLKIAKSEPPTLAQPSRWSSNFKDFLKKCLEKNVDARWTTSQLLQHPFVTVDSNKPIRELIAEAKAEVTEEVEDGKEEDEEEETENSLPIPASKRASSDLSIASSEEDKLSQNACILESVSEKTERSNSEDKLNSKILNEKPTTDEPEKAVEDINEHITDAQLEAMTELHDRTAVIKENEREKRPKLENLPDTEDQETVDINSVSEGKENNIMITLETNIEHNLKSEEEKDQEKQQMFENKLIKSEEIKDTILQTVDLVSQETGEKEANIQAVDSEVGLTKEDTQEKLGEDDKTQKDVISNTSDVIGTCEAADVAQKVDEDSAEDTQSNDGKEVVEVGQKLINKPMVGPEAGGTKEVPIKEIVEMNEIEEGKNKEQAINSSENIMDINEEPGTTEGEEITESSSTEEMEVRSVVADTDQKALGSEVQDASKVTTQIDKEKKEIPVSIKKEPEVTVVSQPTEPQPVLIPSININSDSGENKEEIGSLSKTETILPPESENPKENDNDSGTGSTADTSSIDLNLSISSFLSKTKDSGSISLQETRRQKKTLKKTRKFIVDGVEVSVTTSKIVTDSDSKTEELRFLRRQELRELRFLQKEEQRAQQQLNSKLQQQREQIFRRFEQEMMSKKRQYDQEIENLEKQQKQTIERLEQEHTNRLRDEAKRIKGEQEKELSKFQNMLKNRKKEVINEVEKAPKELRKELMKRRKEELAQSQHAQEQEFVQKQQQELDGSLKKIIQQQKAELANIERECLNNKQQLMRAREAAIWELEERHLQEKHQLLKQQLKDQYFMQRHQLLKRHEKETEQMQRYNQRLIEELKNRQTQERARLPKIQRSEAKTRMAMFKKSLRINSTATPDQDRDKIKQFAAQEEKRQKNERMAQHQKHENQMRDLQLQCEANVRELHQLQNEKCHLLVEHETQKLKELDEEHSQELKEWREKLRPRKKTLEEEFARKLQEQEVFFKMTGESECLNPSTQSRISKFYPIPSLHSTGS
Another assay deals with T4, TAK1-TAB1 (Homo sapiens, UniProt O43318).
T4 construct: gene MAP3K7
T4 sequence (O43318 1-606): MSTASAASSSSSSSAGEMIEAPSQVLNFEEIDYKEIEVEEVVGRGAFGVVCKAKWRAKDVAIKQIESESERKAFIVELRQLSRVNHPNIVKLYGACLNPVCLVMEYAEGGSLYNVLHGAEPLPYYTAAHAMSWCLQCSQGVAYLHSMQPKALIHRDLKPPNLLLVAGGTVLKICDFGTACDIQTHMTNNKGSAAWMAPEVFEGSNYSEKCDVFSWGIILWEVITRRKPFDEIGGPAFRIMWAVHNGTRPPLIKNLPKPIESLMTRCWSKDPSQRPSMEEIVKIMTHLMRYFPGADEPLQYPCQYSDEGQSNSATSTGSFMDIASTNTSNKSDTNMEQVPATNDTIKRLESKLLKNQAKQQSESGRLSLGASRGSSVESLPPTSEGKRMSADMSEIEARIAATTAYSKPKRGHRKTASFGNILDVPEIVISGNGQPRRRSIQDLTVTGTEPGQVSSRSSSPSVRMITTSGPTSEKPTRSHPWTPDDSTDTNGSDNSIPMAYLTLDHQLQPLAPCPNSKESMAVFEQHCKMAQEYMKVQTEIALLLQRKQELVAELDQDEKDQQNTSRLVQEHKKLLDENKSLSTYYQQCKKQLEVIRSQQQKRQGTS
T4 sequence (Q15750 1-504 partner): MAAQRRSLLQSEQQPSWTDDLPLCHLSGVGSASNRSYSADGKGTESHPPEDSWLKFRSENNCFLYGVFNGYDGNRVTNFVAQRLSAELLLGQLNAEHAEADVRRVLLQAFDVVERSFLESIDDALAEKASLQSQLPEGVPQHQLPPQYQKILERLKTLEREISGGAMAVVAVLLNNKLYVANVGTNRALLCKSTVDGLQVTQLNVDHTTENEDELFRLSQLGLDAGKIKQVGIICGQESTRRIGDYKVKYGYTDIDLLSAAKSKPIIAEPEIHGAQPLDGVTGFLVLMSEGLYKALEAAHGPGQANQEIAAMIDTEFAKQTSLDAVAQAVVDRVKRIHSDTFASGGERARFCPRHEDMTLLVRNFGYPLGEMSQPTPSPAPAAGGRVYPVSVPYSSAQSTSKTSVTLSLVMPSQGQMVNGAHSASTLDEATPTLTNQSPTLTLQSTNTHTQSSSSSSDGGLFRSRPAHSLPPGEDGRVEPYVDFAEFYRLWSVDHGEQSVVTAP

The next assay has as its target T5, p70S6K (Homo sapiens, UniProt P23443).
T5 construct: gene RPS6KB1

T2 sequence (P49841 whole entry): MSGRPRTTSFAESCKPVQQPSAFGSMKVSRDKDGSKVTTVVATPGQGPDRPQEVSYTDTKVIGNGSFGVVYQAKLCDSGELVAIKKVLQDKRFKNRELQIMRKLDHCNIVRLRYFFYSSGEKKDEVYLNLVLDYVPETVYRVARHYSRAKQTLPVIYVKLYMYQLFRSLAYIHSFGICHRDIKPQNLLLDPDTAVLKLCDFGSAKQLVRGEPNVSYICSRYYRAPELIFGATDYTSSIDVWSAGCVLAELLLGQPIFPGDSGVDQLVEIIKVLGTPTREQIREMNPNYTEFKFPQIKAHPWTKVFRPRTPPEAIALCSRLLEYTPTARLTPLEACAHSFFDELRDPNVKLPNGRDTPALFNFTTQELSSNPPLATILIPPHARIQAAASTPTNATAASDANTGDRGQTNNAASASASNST
T5 sequence (P23443 whole entry): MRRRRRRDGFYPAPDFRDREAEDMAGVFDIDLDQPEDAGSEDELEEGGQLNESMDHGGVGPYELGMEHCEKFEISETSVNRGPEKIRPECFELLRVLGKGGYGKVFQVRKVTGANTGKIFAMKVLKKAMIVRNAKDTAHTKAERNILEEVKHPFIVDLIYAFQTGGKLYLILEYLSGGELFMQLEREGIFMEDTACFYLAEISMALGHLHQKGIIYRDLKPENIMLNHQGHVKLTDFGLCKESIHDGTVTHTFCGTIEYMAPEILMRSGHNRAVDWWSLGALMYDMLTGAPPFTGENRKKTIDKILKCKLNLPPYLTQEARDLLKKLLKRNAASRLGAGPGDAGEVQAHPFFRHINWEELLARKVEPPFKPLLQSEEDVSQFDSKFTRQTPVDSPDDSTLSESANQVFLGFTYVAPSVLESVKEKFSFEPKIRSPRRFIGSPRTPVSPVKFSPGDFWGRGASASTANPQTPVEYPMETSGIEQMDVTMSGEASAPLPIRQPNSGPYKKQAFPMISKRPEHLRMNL

Regarding `CC#CC(=O)Nc1cccc2c(Oc3ncccc3-c3ccnc(N[C@H]4CCCNC4)n3)c(C)ccc12` [G-7658], the inhibition (in general, the relative decrease from the control value, in per cent) at 1 µM on CHK1 is 4%; at GSK3_beta, 7.5%; at PKD1, 31%; at SLK it was 1.5%; at TAK1-TAB1, -2.5%; on p70S6K it was -1%.
As for `CCOC(=O)Nc1cccc2c(Oc3ncccc3-c3ccnc(N[C@H]4CCCNC4)n3)c(C)ccc12` [G-1749], the inhibition at 1 µM at CHK1 came out at 7.5%; on GSK3_beta, 0.5%; at PKD1, 33.5%; at SLK it was 10%; at TAK1-TAB1, 23%; on p70S6K it was 2.5%.
In the case of `O=c1cc(-c2n[nH]c3ncc(-c4c(F)cccc4F)cc23)nc(N2CCC(O)CC2)[nH]1` [G-9807], the inhibition at 1 µM was 94.8% at CHK1; 99.1% at GSK3_beta; 97.5% on PKD1; 96.9% at SLK; 94.3% at TAK1-TAB1; 88.7% on p70S6K.
